Results published in patent publication US7317028B2, “Cell differentiation inducer” (Schering Aktiengesellschaft, priority 1996, dated 2008).

Key:
A2780 cells = experiment: Test for induction of differentiation in A2780 cells (ALP activity, ALPmin); assay type: cell-based, human; conditions: Homo sapiens, 72 h; A2780 cells, 3 days incubation; minimum concentration of the drug inducing increase of ALP activity
Procedure, shortened: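 A2780 cells seeded at 15,000/well, test compound added in serial dilution the next day. ALP reaction stopped with 3N NaOH and absorbance read at 405 nm; ALPmin is the lowest concentration raising ALP activity.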

SMILES | melting point | minimal effective concentration (A2780 cells) [µM]
O=C(Cc1cccnc1)NCc1ccc(C(=O)Nc2ccccc2O)cc1 [Example 42, N-(2-hydroxyphenyl)-4-[N-(pyridin-3-yl)acetylaminomethyl]benzamide] | 201 to 202 °C | 10
Nc1ccccc1NC(=O)c1ccc(NC(=O)COc2ccc([N+](=O)[O-])cc2)cc1 [Example 134, N-(2-aminophenyl)-4-[N-(4-nitrophenoxyacetyl)amino]benzamide] | 212 to 215 °C (dec.) | 3
Nc1ccccc1NC(=O)c1ccc(CNC(=O)OCc2ccc(Cl)nc2)cc1 [Example 59, N-(2-aminophenyl)-4-[N-(6-chloropyridin-3-yl)methoxycarbonylaminomethyl]benzamide] | 180 to 185 °C | 3
Cc1cccc(C(=O)NCc2ccc(C(=O)Nc3ccccc3N)cc2)n1 [Example 13, N-(2-aminophenyl)-4-[N-(6-methylpicolinoyl)aminomethyl]benzamide] | 172 to 173 °C | 1
Cc1ncccc1C(=O)NCc1ccc(C(=O)Nc2ccccc2N)cc1 [Example 15, N-(2-aminophenyl)-4-[N-(2-methylnicotinoyl)aminomethyl]benzamide] | 191 to 194 °C (dec.) | 3
COc1cc(C(=O)NCc2ccc(C(=O)Nc3ccccc3N)cc2)cc(OC)c1OC [Example 7, N-(2-aminophenyl)-4-[N-(3,4,5-trimethoxybenzoyl)aminomethyl]benzamide] | 208 to 210 °C (dec.) | 1
Nc1ccc(CC(=O)Nc2ccc(C(=O)Nc3ccccc3N)cc2)cc1 [Example 106, N-(2-aminophenyl)-4-[(4-aminophenylacetyl)amino]benzamide] | 219 to 226 °C (dec.) | 1
CN(C(=O)COCc1cccnc1)c1ccc(C(=O)Nc2ccccc2N)cc1 [Example 125, N-(2-aminophenyl)-4-[N-methyl-N-(pyridin-3-yl)methoxyacetylamino]benzamide] | 180 to 183 °C (dec.) | 0.1
COc1cccc(C(=O)NCc2ccc(C(=O)Nc3ccccc3N)cc2)c1 [Example 5, N-(2-aminophenyl)-4-[N-(3-methoxybenzoyl)aminomethyl]benzamide] | 182 to 185 °C | 1
Nc1ccccc1NC(=O)c1ccc(CNC(=O)c2cc3ncccc3o2)cc1 [Example 38, N-(2-aminophenyl)-4-[N-(furo[3,2-b]pyridin-2-yl)carbonylaminomethyl]benzamide] | 191 °C (dec.) | 3
Nc1ccccc1NC(=O)c1ccc(CNC(=O)c2ccno2)cc1 [Example 25, N-(2-aminophenyl)-4-[N-(isoxazol-5-yl)carbonylaminomethyl]benzamide] | 183 to 185 °C (dec.) | 3
Cc1ncccc1COC(=O)NCc1ccc(C(=O)Nc2ccccc2N)cc1 [Example 56, N-(2-aminophenyl)-4-[N-(2-methylpyridin-3-yl)methoxycarbonylaminomethyl]benzamide] | 164 to 165 °C | 3
CN(C)c1ccc(C(=O)NCc2ccc(C(=O)Nc3ccccc3N)cc2)cc1 [Example 8, N-(2-aminophenyl)-4-[N-[4-(N,N-dimethyl)aminobenzoyl]aminomethyl]benzamide] | 216 to 219 °C (dec.) | 1
Nc1ccccc1NC(=O)c1ccc(CNC(=O)OCc2ccccn2)cc1 [Example 51, N-(2-aminophenyl)-4-[N-(pyridin-2-yl)methoxycarbonylaminomethyl]benzamide] | 166 to 167 °C | 1
Nc1ccccc1NC(=O)c1ccc(CNC(=O)c2ccc3ncccc3c2)cc1 [Example 37, N-(2-aminophenyl)-4-[N-(quinolin-6-yl)carbonylaminomethyl]benzamide] | 209 to 210 °C | 1
Nc1ccccc1NC(=O)c1ccc(CNC(=O)c2cccnc2Cl)cc1 [Example 17, N-(2-aminophenyl)-4-[N-(2-chloronicotinoyl)aminomethyl]benzamide] | 176 to 178 °C (dec.) | 3
Nc1ccccc1NC(=O)c1ccc(CNC(=O)c2ccc(C(F)(F)F)cc2)cc1 [Example 9, N-(2-aminophenyl)-4-[N-(4-trifluoromethylbenzoyl)aminomethyl]benzamide] | 243 to 246 °C | 1
Cl.Nc1ccccc1NC(=O)c1ccc(-n2cc(COCc3ccccc3)oc2=O)cc1 [Example 138, N-(2-aminophenyl)-4-(5-benzyloxymethyl-1,3-oxazolin-2-on-3-yl)benzamide hydrochloride] | 181 to 183 °C | 1
Nc1ccccc1COC(=O)NCc1ccc(C(=O)Nc2ccccc2N)cc1 [Example 71, N-(2-aminophenyl)-4-[N-(2-aminophenyl)methoxycarbonylaminomethyl]benzamide] | 149 to 151 °C (dec.) | 10
Nc1ccccc1NC(=O)c1ccc(CNC(=O)c2ccc(Cl)nc2)cc1 [Example 18, N-(2-aminophenyl)-4-[N-(6-chloronicotinoyl)aminomethyl]benzamide] | 205 to 208 °C (dec.) | 3
Nc1ccccc1NC(=O)c1ccc(CNC(=O)OCc2cnccn2)cc1 [Example 77, N-(2-aminophenyl)-4-[N-(pyrazin-2-yl)methoxycarbonylaminomethyl]benzamide] | 182 °C | 3
Nc1ccccc1NC(=O)c1ccc(CNC(=O)OCc2ccc(-n3ccnc3)cc2)cc1 [Example 50, N-(2-aminophenyl)-4-[N-(4-(imidazol-1-yl)benzyl)oxycarbonylaminomethyl]benzamide] | 195 to 198 °C | 1
Nc1ccccc1NC(=O)c1ccc(C(=O)NCCc2ccccc2)cc1 [Example 133, N-(2-aminophenyl)-4-[N-(2-phenylethyl)amino]carbonylbenzamide] | 237 to 240 °C (dec.) | 3
Cc1cc(C(=O)NCc2ccc(C(=O)Nc3ccccc3N)cc2)sn1 [Example 26, N-(2-aminophenyl)-4-[N-(3-methylisothiazol-5-yl)carbonylaminomethyl]benzamide] | 168 to 169 °C | 1
Nc1cccc(CC(=O)NCc2ccc(C(=O)Nc3ccccc3N)cc2)c1 [Example 28, N-(2-aminophenyl)-4-[N-(3-aminophenyl)acetylaminomethyl]benzamide] | 171 to 176 °C | 10

The next lines start with results.

melting point | SMILES | minimal effective concentration (A2780 cells) [µM]
182 to 189 °C (dec.) | Cl.Cl.Nc1ccccc1NC(=O)c1ccc(NC(=O)Cc2cccnc2)cc1 [Example 111, N-(2-aminophenyl)-4-[(pyridin-3-yl)acetylamino]benzamide dihydrochloride] | 3
232 to 237 °C | Nc1ccccc1NC(=O)c1ccc(NC(=O)Cc2ccccc2)cc1 [Example 100, N-(2-aminophenyl)-4-(phenylacetylamino)benzamide] | 1
145 °C (dec.) | Nc1ccccc1NC(=O)c1ccc(NC(=O)CN(Cc2cccnc2)C(=O)C(F)(F)F)cc1 [Example 114, N-(2-aminophenyl)-4-[[N-(pyridin-3-yl)methyl-N-trifluoroacetylamino]acetylamino]benzamide] | 3
154 to 156 °C (dec.) | Nc1ccccc1NC(=O)c1ccc(CNC(=S)OCc2cccnc2)cc1 [Example 88, N-(2-aminophenyl)-4-[N-(pyridin-3-yl)methoxythiocarbonylaminomethyl]benzamide] | 0.1
183 to 186 °C | Nc1ccccc1NC(=O)c1ccc(CNC(=O)CCc2cccnc2)cc1 [Example 30, N-(2-aminophenyl)-4-[N-[3-(pyridin-3-yl)propionyl]aminomethyl]benzamide] | 0.1
190 to 194 °C | Nc1ccccc1NC(=O)c1ccc(NC(=O)CCC(=O)c2cccnc2)cc1 [Example 121, N-(2-aminophenyl)-4-[4-(pyridin-3-yl)-1,4-dioxobutylamino]benzamide] | 3
154 to 155 °C | CN(CC(=O)Nc1ccc(C(=O)Nc2ccccc2N)cc1)Cc1cccnc1 [Example 119, N-(2-aminophenyl)-4-[[N-(pyridin-3-yl)methyl-N-methylamino]acetylamino]benzamide] | 3
160 °C (dec.) | Nc1ccccc1NC(=O)c1ccc(NC(=O)CNCc2cccnc2)cc1 [Example 115, N-(2-aminophenyl)-4-[[N-(pyridin-3-yl)methylamino]acetylamino]benzamide] | 0.01
177 to 182 °C (dec.) | Nc1ccccc1CC(=O)Nc1ccc(C(=O)Nc2ccccc2N)cc1 [Example 105, N-(2-aminophenyl)-4-[(2-aminophenylacetyl)amino]benzamide] | 1
184 to 186 °C | Nc1ccccc1NC(=O)c1ccc(NC(=O)CCc2cccnc2)cc1 [Example 112, N-(2-aminophenyl)-4-[[3-(pyridin-3-yl)propanoyl]amino]benzamide] | 0.1
121 to 124 °C | Nc1ccccc1NC(=O)c1ccc(CNC(=O)OCCCc2cccnc2)cc1 [Example 55, N-(2-aminophenyl)-4-[N-[3-(pyridin-3-yl)propyloxycarbonyl]aminomethyl]benzamide] | 1
